Test results published in patent US20120225909A1, “INDAZOLE ANALOG” (priority 2009, published 2012).

Columns and labels:
[1] = biological target: T1, human β3-adrenergic receptor (Homo sapiens, UniProt P13945); assay: Test Case 1-B: human β3-adrenergic receptor agonist activity (cAMP-Screen, 96-well); assay type: cell-based; settings: for Emax: 0.5 h, read-out: β3 receptor I.A.; for EC50 / β3 receptor I.A.: Test Case 1-B; for EC50: CHO cells, cAMP; for β3 receptor I.A.: maximum response of isoproterenol = 100%
T1 construct: A full-length human β3 gene is obtained from a human genomic library (made by Clontech) using this as the probe; expressed in transfected cells; host or cells: CHO (Chinese hamster ovary) cells, pcDNA3
T1 sequence (P13945 whole entry): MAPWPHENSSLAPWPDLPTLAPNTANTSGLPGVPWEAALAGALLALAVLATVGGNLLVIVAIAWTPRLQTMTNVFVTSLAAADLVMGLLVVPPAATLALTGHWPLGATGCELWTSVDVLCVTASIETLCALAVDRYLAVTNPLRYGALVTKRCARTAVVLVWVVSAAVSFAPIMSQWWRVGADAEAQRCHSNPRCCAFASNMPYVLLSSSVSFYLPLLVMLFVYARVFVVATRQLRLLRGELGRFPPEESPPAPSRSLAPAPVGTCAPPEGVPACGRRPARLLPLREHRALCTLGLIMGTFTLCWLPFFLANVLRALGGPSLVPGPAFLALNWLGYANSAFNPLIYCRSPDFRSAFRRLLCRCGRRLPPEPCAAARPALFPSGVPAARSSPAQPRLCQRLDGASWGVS
Method in brief: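 CHO cells stably transfected with full-length human β3 gene, serum-starved 15 min, then exposed to serially diluted compound in Ham's F-12 with 100 mmol/L HEPES and 1 mmol/L IBMX (diluent concentrations) for 30 min. Cells lysed 30 min at 37 °C; cAMP quantified by cAMP-Screen immunoassay.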

[2] = biological target: T2, human β1-adrenergic receptor (Homo sapiens, UniProt P08588); assay: Test Case 2-C: human β1-adrenergic receptor agonist activity (Cerep cellular functional GPCR, beta 1); assay type: cell-based; settings: concentration 10 μM, isoproterenol = 100%
T2 construct: expressed in transfected cells; host or cells: CHO (Chinese hamster ovary) cells, pcDNA3
T2 sequence (P08588 whole entry): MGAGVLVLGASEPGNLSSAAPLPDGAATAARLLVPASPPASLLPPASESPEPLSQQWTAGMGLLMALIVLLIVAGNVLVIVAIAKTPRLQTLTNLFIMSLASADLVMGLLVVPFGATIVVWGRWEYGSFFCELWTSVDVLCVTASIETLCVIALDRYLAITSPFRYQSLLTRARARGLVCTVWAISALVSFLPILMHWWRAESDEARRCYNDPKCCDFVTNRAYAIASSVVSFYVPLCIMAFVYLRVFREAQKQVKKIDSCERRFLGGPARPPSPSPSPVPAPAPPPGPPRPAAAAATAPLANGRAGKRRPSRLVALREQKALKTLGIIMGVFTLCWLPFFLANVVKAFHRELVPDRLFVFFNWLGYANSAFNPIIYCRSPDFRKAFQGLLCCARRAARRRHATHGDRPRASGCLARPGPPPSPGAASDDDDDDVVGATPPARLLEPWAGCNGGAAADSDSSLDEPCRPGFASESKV
Text: (§1) Measurement of Human β1-Adrenergic Receptor Agonist Activity

[3] = biological target: T3, human β2-adrenergic receptor (Homo sapiens, UniProt P07550); assay: Test Case 3-B: human β2-adrenergic receptor agonist activity; assay type: cell-based; settings: for Emax: read-out: β2 receptor I.A.; for β2 receptor I.A.: Test Case 3-B, maximum response of isoproterenol = 100%
T3 construct: expressed in transfected cells; host or cells: CHO (Chinese hamster ovary) cells, pcDNA3
T3 sequence (P07550 whole entry): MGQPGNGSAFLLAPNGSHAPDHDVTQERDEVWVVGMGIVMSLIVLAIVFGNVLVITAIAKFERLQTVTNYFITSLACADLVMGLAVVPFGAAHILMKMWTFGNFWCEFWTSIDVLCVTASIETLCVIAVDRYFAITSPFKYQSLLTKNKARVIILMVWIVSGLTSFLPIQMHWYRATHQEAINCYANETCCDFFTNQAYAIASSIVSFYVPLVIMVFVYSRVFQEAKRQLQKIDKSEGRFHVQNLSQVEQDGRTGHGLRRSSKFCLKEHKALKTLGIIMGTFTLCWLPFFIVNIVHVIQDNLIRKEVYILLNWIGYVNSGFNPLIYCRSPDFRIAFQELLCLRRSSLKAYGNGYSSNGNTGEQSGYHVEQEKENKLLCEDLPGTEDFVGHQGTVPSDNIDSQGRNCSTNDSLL
Procedure: (§2) Measurement of Human β2-Adrenergic Receptor Agonist Activity
The human β2-adrenergic receptor agonist activity is measured by the same method as in Test Case 1-B using CHO (Chinese hamster ovary) cells transfected by a human β2 gene inserted in pcDNA3 (Invitrogen).

[4] = biological target: T3, human β2-adrenergic receptor; assay: Test Case 3-C: human β2-adrenergic receptor agonist activity (Cerep cellular functional GPCR, beta 2); assay type: cell-based; settings: concentration 10 μM, isoproterenol = 100%
Text: as §2

[5] = tested on: pentobarbital-anesthetized rats; assay: Test Case 9: effects on the blood pressure and heart rate in pentobarbital-anesthetized rats; assay type: in vivo, rat
Procedure: Effects on the blood pressure and heart rate in pentobarbital-anesthetized rats
The blood pressure and heart rate of rats under pentobarbital anesthesia are measured, and the effects of rapid intravenous administration of the test compound on the blood pressure and heart rate can be studied. After anesthetizing male SD rats (Japan SLC) by intraperitoneal administration of 50 mg/kg of pentobarbital sodium (Tokyo Chemical Industry Co., Ltd.), 25 mg/kg of pentobarbital sodium is administered subcutaneously as maintenance anesthesia. The left femoral vein is exposed and stripped, and a SP10 polyethylene tube filled with saline (connected to a three-way stopcock via a ¼ venous needle) is inserted and left in place in the vein.
The inside of the left thigh is cut, and the femoral artery is exposed and stripped. A polyethylene tube filled with heparinized physiological saline solution (SP31, connected to a three-way stopcock via a Terumo injection needle 22G) is inserted and connected to a pressure transducer. The blood pressure is measured from the pressure transducer via a strain pressure amplifier (AP-641G, Nihon Kohden). The heart rate is measured with the pulse wave of the blood pressure as a trigger via a heart rate counter (AT-601G, Nihon Kohden). The blood pressure, mean blood pressure, and heart rate are output to a recorder and recorded. Furthermore, the mean blood pressure is recorded via the strain pressure amplifier (AP-641G) using the formula {[…]}.
Specifically, 3 mg/mL of test compound is administered rapidly at a volume of 1 mL/kg. The relative value (%) of the values at each point in time versus the mean blood pressure and heart rate before beginning administration are determined for each individual, and the mean±standard deviation of the relative value (%) at the time of the maximum change in each parameter is determined.

[6] = tested on: Male C57BL/6 Cr mice; assay: Test Case 10: mouse piloerection test; assay type: in vivo
Procedure: Male C57BL/6 Cr mice (Japan SLC) are used. The dissolved compound is administered rapidly via a caudal vein. The animal is placed on the observation stand 5, 15, 30, and 60 minutes after administration, and the state of piloerection is observed. The state of piloerection is evaluated by the following 7-level scoring system according to the examples by the method of Irwin (Psychopharmacologia 1968, 13; 222-257).
Scoring system: “Score 0”: No piloerection at all; “Score 1”: Slight piloerection (piloerection on part of the body such as the back or neck); “Score 2”: Moderate piloerection (piloerection over the entire body); “Score 3”: Marked piloerection (piloerection over the entire body, conspicuous to the extent that the skin can be seen).
“Score 0.5” is between “Score 0” and “Score 1” “Score 1.5” is between […]. “Score 2.5” is between “Score 2” and “Score 3.”

[7] = biological target: T4, human α1A-adrenergic receptor (Homo sapiens, UniProt P35348); assay: Test Case 4-B: human α1A-adrenergic receptor agonist activity (Cerep cellular functional GPCR, alpha 1A); assay type: cell-based; set-up: expressed in transfected cells; settings: concentration 10 μM
T4 sequence (P35348 1-466): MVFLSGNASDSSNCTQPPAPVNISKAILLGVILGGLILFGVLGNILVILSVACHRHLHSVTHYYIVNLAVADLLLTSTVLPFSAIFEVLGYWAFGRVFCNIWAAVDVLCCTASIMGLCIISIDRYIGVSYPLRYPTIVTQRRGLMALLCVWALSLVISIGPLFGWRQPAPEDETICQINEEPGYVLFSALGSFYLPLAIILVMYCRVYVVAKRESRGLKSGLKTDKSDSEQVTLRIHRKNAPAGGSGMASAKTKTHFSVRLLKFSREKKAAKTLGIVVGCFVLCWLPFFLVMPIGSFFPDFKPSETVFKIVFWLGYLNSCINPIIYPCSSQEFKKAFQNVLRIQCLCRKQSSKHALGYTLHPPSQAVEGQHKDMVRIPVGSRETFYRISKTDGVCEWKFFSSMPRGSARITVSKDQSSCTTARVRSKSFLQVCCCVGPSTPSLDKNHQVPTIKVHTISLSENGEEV
Text: Measurement of Human α1A-Adrenergic Receptor Agonist Activity
The human α1A-adrenergic receptor agonist activity] can be measured by […] Functional GPCR·Gs, alpha 1A (Ref. 722-36a) listed on p. 52 of the Cerep 2008 CATALOG IN VITRO PHARMACOLOGY & ADME-TOX.

[8] = biological target: T2, human β1-adrenergic receptor; assay: Test Case 2-B: human β1-adrenergic receptor agonist activity; assay type: cell-based; settings: for Emax: read-out: β1 receptor I.A.; for β1 receptor I.A.: Test Case 2-B, maximum response of isoproterenol = 100%
Procedure: as §1
The human β1-adrenergic receptor agonist activity is measured by the same method as in Test Case 1-B using CHO (Chinese hamster ovary) cells transfected by a human β1 gene inserted in pcDNA3 (Invitrogen).

[9] = biological target: T4, human α1A-adrenergic receptor; assay: Test Case 4-A: human α1A-adrenergic receptor agonist activity (HEK293, Ca flux, Fura-2); assay type: cell-based; set-up: expressed in transfected cells; host or cells: HEK293 cells, pcDNA3.1; settings: for Emax: HEK293, read-out: α1A receptor I.A.; for α1A receptor I.A.: Test Case 4-A, maximum response of norepinephrine = 100%, Table 4
Method in brief: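 Fura-2AM-loaded HEK293 cells transfected with human α1A were preincubated for 180 s. Compound (sample plate 10^−5 to 10^−12 M) was added after ~30 s of 340/380 nm excitation ratio reading (500 nm emission, 2-s intervals), followed by 270 s more reading. Ca flux is the peak height: maximum ratio after addition minus the pre-addition ratio.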

[10] = anesthetized male SD rats, 3 mg/kg intravenous over 30 seconds, maximum change, mean±standard deviation
[11] = 10 mg/kg i.v., n=4, observation time 5 min, Score 0
[12] = 10 mg/kg i.v., n=4, observation time 15 min, Score 0
[13] = 10 mg/kg i.v., n=4, observation time 30 min, Score 0
[14] = 10 mg/kg i.v., n=4, observation time 60 min, Score 0
[15] = 10 mg/kg i.v., n=4, observation time 5 min
[16] = 10 mg/kg i.v., n=4, observation time 15 min
[17] = 10 mg/kg i.v., n=4, observation time 30 min

Row | SMILES | Emax [1] [%] | EC50 [1] [nM] | Emax [3] [%] | increase in MBP (%) [5, 10] [%] | number of experimental animals matching Score 0 (no piloerection) [6, 11] | number of experimental animals matching Score 0 (no piloerection) [6, 12] | number of experimental animals matching Score 0 (no piloerection) [6, 13] | number of experimental animals matching Score 0 (no piloerection) [6, 14] | Emax [8] [%] | Emax [9] [%] | β3 receptor I.A. [1] [%] | β1 receptor I.A. [8] [%] | β2 receptor I.A. [3] [%] | increase in MBP (%) ([5]; rat, in vivo, iv, 3 mg/kg) | number of experimental animals matching Score 0 (no piloerection) ([6]; in vivo, iv, 10 mg/kg) | α1A receptor I.A. [9] [%] | further results
1 | O=S(=O)(Nc1cccc([C@@H](O)CNCCOc2ccc3c(OC(F)F)n[nH]c3c2)c1)c1cn[nH]c1 [ex113, (R)-N-(3-(2-(2-(3-(difluoromethoxy)-indazol-6-yloxy)ethylamino)-1-hydroxyethyl)phenyl)pyrazole-4-sulfonamide] | 108 | 22 | 3 | 3.3 ± 1.7 | 4 | 4 | 4 | 4 | – | – | – | – | – | – | – | – | β1 receptor % of Control Agonist Response [2]: 3.7%; β2 receptor % of Control Agonist Response [4]: 0.2%; α1 receptor % of Control Agonist Response, Control; Epinephrine ([7]; epinephrine = 100%): 6.9%; α1 receptor % of Control Agonist Response, Control; Norepinephrine ([7]; norepinephrine = 100%): 6.0%
2 | O=S(=O)(Nc1cccc([C@@H](O)CNCCOc2ccc3c(C4CC4)n[nH]c3c2)c1)C1CC1 [ex212] | 95 | 29 | 15 | 2.1 ± 1.7 | 4 | 4 | 4 | 4 | 6 | 0 | – | – | – | – | – | – | –
3 | Cc1n[nH]c2cc(OCCNC[C@H](O)c3cccc(NS(=O)(=O)c4cc(N)ccc4F)c3)ccc12 [ex61] | 64 | 0.2 | -3 | 4.7 ± 1.2 | 4 | 4 | 4 | 4 | 17 | 0 | – | – | – | – | – | – | –
4 | COc1n[nH]c2cc(OCCNC[C@H](O)c3cccc(NS(=O)(=O)c4ccsc4)c3)ccc12 [ex46, (R)-N-(3-(1-hydroxy-2-(2-(3-methoxyindazol-6-yloxy)-ethylamino)ethyl)phenyl)thio-phene-3-sulfonamide] | – | 2.4 | – | – | – | – | – | – | – | – | 78 | 5 | −2 | 5.6 ± 1.1 | 4 | 0 | –
5 | COc1n[nH]c2cc(OCCNC[C@H](O)c3cccc(NS(=O)(=O)c4ccccc4F)c3)ccc12 [ex5, (R)-2-fluoro-N-(3-(1-hydroxy-2-(2-(3-methoxyindazol-6-yloxy)ethylamino)ethyl)phenyl)benzenesulfonamide] | 90 | 90 | 0 | 5.1 ± 2.4 | 2 | 2 | 2 | 2 | 5 | 0 | – | – | – | – | – | – | number of experimental animals matching Score 0.5 [6, 15]: 2; number of experimental animals matching Score 0.5 [6, 16]: 2; number of experimental animals matching Score 0.5 [6, 17]: 2; number of experimental animals matching Score 0.5 ([6]; 10 mg/kg i.v., n=4, observation time 60 min): 2
6 | COc1n[nH]c2cc(OCCNC[C@H](O)c3cccc(NS(=O)(=O)c4cccnc4)c3)ccc12 [ex44, (R)-N-(3-(1-hydroxy-2-(2-(3-methoxyindazol-6-yloxy)-ethylamino)ethyl)phenyl)py-ridine-3-sulfonamide] | – | 13 | – | – | – | – | – | – | – | – | 58 | 9 | 5 | 5.7 ± 3.0 | 4 | 0 | –
7 | Cc1n[nH]c2cc(OCCNC[C@H](O)c3cccc(NS(=O)(=O)c4cnn(C)c4)c3)ccc12 [ex79, (R)-N-(3-(1-hydroxy-2-(2-(3-methylindazol-6-yloxy)ethylamino)ethyl)phenyl)-1-methyl-pyrazole-4-sulfonamide] | 84 | 54 | 7 | 4.2 ± 1.8 | 3 | 3 | 3 | 4 | 7 | 0 | – | – | – | – | – | – | number of experimental animals matching Score 0.5 [6, 15]: 1; number of experimental animals matching Score 0.5 [6, 16]: 1; number of experimental animals matching Score 0.5 [6, 17]: 1
8 | COc1n[nH]c2cc(OCCNC[C@H](O)c3cccc(NS(=O)(=O)c4cccs4)c3)ccc12 [ex45, (R)-N-(3-(1-hydroxy-2-(2-(3-methoxyindazol-6-yloxy)-ethylamino)ethyl)phenyl)thio-phene-2-sulfonamide] | – | 2.4 | – | – | – | – | – | – | – | – | 80 | 9 | 2 | 3.9 ± 2.1 | 1 | 0 | –
